Laboratory results taken from PubChem BioAssay AID1159562 (GlaxoSmithKline (GSK), 2015).
Active and inactive are the calls of the source. No rule for the calls is given here.

Test system: Trypanosoma brucei growth inhibition, luminescence
Assay: Trypanosoma brucei growth inhibition, luminescence (AID 1159562);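 also: parasites grew with compound for 24 h before the luminescence read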

IC50	Compound
13000 nM	Cc1cccc(N2CCCN(Cc3c[nH]c4ccccc34)CC2)n1
790 nM	O=C(CC1(O)C(=O)N(Cc2cccs2)c2ccc(Br)cc21)c1cccnc1 (stereo not given)
> 40000 nM (inactive)	Cc1nnnn1-c1cccc(C(=O)N2CCC[C@@]3(C)c4ncncc4CCC23)c1 (stereo not given in full)
160 nM	CC1CCCCN1C(=O)NCCc1coc(-c2ccc(F)cc2)n1 (stereo not given)
> 40000 nM (inactive)	O=[N+]([O-])c1cccc(Nc2cncc(-c3ccccc3CO)c2)c1
2000 nM	COc1ccccc1CNc1cc(C2CC2)nc(-c2nccn2C)n1
16000 nM	Cc1ccc(NC(=O)c2ccc(Cl)c(NC(=O)c3ccc([N+](=O)[O-])cc3)c2)cc1
200 nM	Cc1nc2c(-c3cccs3)c(C)nn2c(NCCO)c1C
500 nM	Cc1[nH]nc(-c2nc3ccccc3[nH]2)c1C(=O)NC1CCCNC1 (stereo not given)
40 nM	Cc1cnc(Nc2cc(Cc3ccccc3)nc(NC3CCC(O)CC3)n2)s1 (stereo not given)
> 40000 nM (inactive)	N#Cc1ccc(S(=O)(=O)N2CCC3(CCN(c4ccccc4)C3=O)CC2)cc1
> 40000 nM (inactive)	CC1=C(C(=O)Nc2ccc(Cl)cc2)C(c2ccncc2)n2ncc(C(=O)Nc3ccccc3)c2N1 (stereo not given)
63 nM	COc1ccc(OC)c(NC(=O)c2ccc([N+](=O)[O-])o2)c1
20000 nM	O=C(Nc1nc2ccccc2[nH]1)c1c(O)c2cccc3c2n(c1=O)CC3
10000 nM	COc1ccc(Nc2nccc(N(C)c3n[nH]c4c(F)cccc34)n2)cc1S(C)(=O)=O
32000 nM	CN(C)Cc1ccc(N2CCC(NS(=O)(=O)c3ccc(Cl)cc3)CC2)cc1
13000 nM	N#Cc1cccc(CNc2ccc(-c3cnn(CC4CC4)c(=O)c3C#N)cc2)c1
> 40000 nM (inactive)	O=C(CSc1ccc(-c2ccccn2)nn1)Nc1ccc(Cl)cc1
250 nM	O=C(NCc1nnc2n1CCCCC2)c1ccc(-c2ccc(F)cc2)o1
160 nM	Nc1cc(-c2ccc3ncnc(N4CCOCC4)c3c2)cnc1N
320 nM	O=C(NCC(c1cccs1)N1CCOCC1)c1ccc([N+](=O)[O-])o1 (stereo not given)
> 40000 nM (inactive)	COc1ccc(C)cc1-c1csc(NC(=O)C(C)n2ccnc2)n1 (stereo not given)
20000 nM	O=C(Nc1n[nH]c(-c2ccccn2)n1)C1CC1c1ccccc1 (stereo not given)
200 nM	CN(C)Cc1cccc(Nc2nccc(-c3ccc(NCCN)c(C#N)c3)n2)c1
200 nM	O=C(Nc1ccc(S(=O)(=O)N2CCCC2)cc1)c1ccc([N+](=O)[O-])s1
630 nM	CN(CC1CCCO1)S(=O)(=O)c1ccc(C(=O)Nc2nc(-c3ccccn3)cs2)cc1 (stereo not given)

IC50	Compound
25000 nM	Cc1nn(C2CCS(=O)(=O)C2)c(C)c1CN(C)C(=O)C=Cc1sc2ccccc2c1Cl (stereo not given)
1000 nM	Cc1nc(-c2ccncc2)ncc1C(C)NC(=O)c1ccc(Cl)s1 (stereo not given)
320 nM	NS(=O)(=O)c1ccc(Nc2ncc3cccc(OC4CCNCC4)c3n2)cc1
250 nM	O=C1CN(Cc2ccco2)C2CS(=O)(=O)CC2N1c1ccc(Cl)cc1 (stereo not given)
25000 nM	c1ccc(Nc2nc3ccccc3[nH]2)nc1
250 nM	COc1ccc(C(=O)NC2CCN(CCn3c(=O)ccc4ncc(F)cc43)CC2)cc1Cl
790 nM	O=C(NC(CO)c1ccc(F)cc1)c1ccc(-c2c[nH]c3ncccc23)s1 (stereo not given)
40000 nM	Cn1cc(CN2CCN(c3ccc4c(c3)CCN(C(=O)[C@H]3C[C@@H]3c3ccccc3)CC4)CC2)cn1
6300 nM	OCC1CCCCN1c1cc(-c2ccccn2)nc(Nc2ccccc2)n1 (stereo not given)
25000 nM	CCCc1nc2nc(N)nc(N)c2cc1CC
500 nM	O=C(CSc1nnc2ccc(-c3ccc(F)cc3)nn12)N1CCCCC1
> 40000 nM (inactive)	O=C(Nc1cccc(F)c1)N1CCC(Oc2cccc(-c3cccnc3)c2)CC1
32000 nM	O=C(c1cnn(-c2ccccc2)n1)N1CCCC(n2ccnc2)C1 (stereo not given)
400 nM	CC(=O)Nc1ccc(CN2CCC(N3CC(c4ccccc4)(c4ccccc4)OCC3=O)CC2)cc1
> 40000 nM (inactive)	Cc1nc(N2CC(C)OC(C)C2)sc1C(=O)Nc1ccc2c(c1)OCO2 (stereo not given)
320 nM	COc1ccc2ncc(F)c(CCN3CC[C@@H](NC(=O)c4cc5c(s4)CCC5)[C@@H](O)C3)c2n1
> 40000 nM (inactive)	Cc1[nH]c2ccccc2c(=O)c1Cc1c(C)[nH]c2ccccc2c1=O
200 nM	N#Cc1ccc(Br)cc1[N+](=O)[O-]
630 nM	COc1ccc(NS(=O)(=O)c2cc(-c3cc(C)[nH]n3)ccc2C)cc1OC
20000 nM	O=C(NCc1ccncc1)c1ccccc1N1CCCN(C(=O)Cc2ccc(F)c(F)c2)CC1
> 40000 nM (inactive)	Cc1cc(N2CCc3ccccc3C2)nc(Nc2ccc(S(=O)(=O)N3CCOCC3)cc2)n1
10000 nM	CNc1nc(C)nc(N2CCc3cc(C(=O)NCc4ccc(-c5ccn[nH]5)cc4Cl)ccc32)n1
630 nM	CN(C)S(=O)(=O)c1cccc(C(=O)Nc2nc(-c3ccccn3)cs2)c1
790 nM	CCn1c(-c2nonc2N)nc2c([C@@H](C)O)ncc(O[C@H](CN)c3ccccc3)c21
1000 nM	O=C(Nc1ccc(C(F)(F)F)cc1)NC1(C(=O)NCc2ccco2)CCCCC1
5000 nM	Cc1ccc(Nc2nc(N)nc(CNC(c3nc4ccccc4[nH]3)C(C)C)n2)cc1 (stereo not given)

IC50	Compound
400 nM	COc1ncc(-c2ccc3nccc(-c4ccncc4)c3c2)cc1NS(=O)(=O)C1CC1
> 40000 nM (inactive)	CC(Cn1ccnc1)NC(=O)C1CC1c1cccc(Cl)c1Cl (stereo not given)
630 nM	Cc1ccccc1NS(=O)(=O)c1ccc2[nH]cc(C(=O)NC3CCCC3)c(=O)c2c1
> 40000 nM (inactive)	CCn1nccc1CN(C)C(=O)C=Cc1ccc(Cl)cc1
500 nM	CCOc1ccc(NC(=O)c2ccc(NC(=O)NC3CCCCC3)cc2)cc1
3200 nM	N#Cc1cc([N+](=O)[O-])ccc1NC1CCCCCC1
16000 nM	CN(CCOc1ccc(Cl)cc1)Cc1nc(N)nc(N(C)C)n1
10000 nM	CCNc1cc(-c2ccccn2)nc(Nc2ccc(OC)cc2)n1
1000 nM	CCc1cccc(CC)c1-n1c(SCC(=O)N2CC(=O)Nc3ccccc32)nnc1-c1cccnc1
400 nM	CC1CCCN(S(=O)(=O)c2ccc(C(=O)Nc3nc(-c4ccccn4)cs3)cc2)C1 (stereo not given)
200 nM	CC(C)CC(=O)Nc1cc(C2CC2)nn1-c1nc2c(c(=O)[nH]1)CCCC2
> 40000 nM (inactive)	O=C(COc1nn(-c2ccccc2)c2ncccc12)NCc1ccccc1
10000 nM	Fc1ccc(OC2CC(NCc3cccc4cn[nH]c34)C2)cc1C(F)(F)F (stereo not given)
1000 nM	O=C(c1ccccc1)N1CCC(C(=O)N2CCC(Oc3ccccc3Cl)CC2)CC1
630 nM	CC(C)CC(=O)NC(c1cccs1)c1ccc2cccnc2c1O (stereo not given)
790 nM	N#Cc1ccc(C(=O)Nc2cccc(-c3cccc(CN4CCC(O)CC4)c3)c2)cc1
> 40000 nM (inactive)	Clc1ccc(OCCN2CCCCC2c2cccnc2)c(Cl)c1 (stereo not given)
25000 nM	COc1ccc([N+](=O)[O-])cc1NC(=O)c1cc(Cl)ccc1O
630 nM	CCOC(=O)c1noc(N)c1-c1ccccc1
5000 nM	CS(=O)(=O)c1cccc(-c2cnc(N)c3c(-c4ccc(CO)cc4)csc23)c1
7900 nM	CCCc1cc(N)nc(-c2cc(CCC)cc(N)n2)c1
63 nM	N#Cc1cccc(Cc2cc(Nc3cc(C4CC4)[nH]n3)nc(N3CC[C@H]3C(N)=O)n2)c1
> 40000 nM (inactive)	Cc1nc(-c2ccc3c(c2)OCO3)sc1C(=O)NCc1ccc2c(c1)OCO2
32000 nM	COc1ccc(S(=O)(=O)Nc2ccccc2OC)cc1NC(=O)CCCc1c[nH]c2ccccc12
160 nM	NS(=O)(=O)c1ccc(Nc2nccc(-c3cnn4ncccc34)n2)cc1
32000 nM	COc1cc(C(C)C)c(S(C)(=O)=O)cc1C(=O)N1CCN(c2ccccc2Cl)CC1

IC50	Compound
400 nM	CN(C)S(=O)(=O)c1ccc(Cl)c(C(=O)Nc2nc(-c3ccccn3)cs2)c1
2000 nM	Cc1cc(C)cc(NS(=O)(=O)c2cc(-c3cc(C)[nH]n3)ccc2C)c1
6300 nM	N#Cc1cccc(Nc2nccc(N3CCC(NS(=O)(=O)c4cccc(C#N)c4)CC3)n2)c1
1000 nM	O=[N+]([O-])c1ccc(-c2nnn(-c3ccc(Cl)cc3)n2)o1
10000 nM	CC(c1ccccn1)N(C)Cc1nc2ccccc2n1C(C)C (stereo not given)
1000 nM	CN(Cc1nc2c(C(=O)N3CCN(Cc4ccccc4)CC3)cccc2[nH]1)C1CCCc2cccnc21 (stereo not given)
320 nM	Cc1ccc(S(=O)(=O)Nc2ccc(CN3CCN(C(=O)c4cccc(C#N)c4)CC3)cc2)cc1
2500 nM	COc1ccc(CNc2cc(C3CC3)nc(-c3nccn3C)n2)cc1
790 nM	O=C(NC1CCN(C2Cc3ccc(NS(=O)(=O)c4cc(F)cc(F)c4)cc3C2)CC1)C1CC1 (stereo not given)
790 nM	COc1cnc2ccc(=O)n(CCN3CCC(NC/C=C/c4cc(F)ccc4F)CC3)c2c1
20000 nM	O=C(NCC(c1cccnc1)N1CCc2ccccc2C1)C(=O)Nc1cccc(Cl)c1 (stereo not given)
1000 nM	COCCn1cnc2cc(NC(=O)C3CCCCC3)cc(C(=O)N3CCc4sccc4C3)c21
200 nM	CC(C)(C)C(=O)Nc1cc(C2CC2)nn1-c1nc2c(c(=O)[nH]1)CCCC2
13000 nM	COc1ccc(Nc2nc(-c3ccccn3)cc(N3CCCC(O)C3)n2)cc1 (stereo not given)
> 40000 nM (inactive)	Cc1cc2cncn2c(C2CCCCN2C(=O)c2cccs2)n1 (stereo not given)
500 nM	COc1ccc2nccc(NC(=O)C3(OC)CCN(CC(O)c4ccc5c(c4)OCCO5)CC3)c2n1 (stereo not given)
> 40000 nM (inactive)	Cc1nc2nc(C)c(Cc3ccc(C(C)C)cc3)c(=O)n2[nH]1
20000 nM	Cc1cc(-c2cccc3ccccc23)nc2nc(N)nc(N)c12
500 nM	Cc1cccc(Nc2nc(-c3ccccn3)cs2)n1
4000 nM	OC1CCC(Nc2nccc(-c3sc(C4CCOCC4)nc3-c3ccc(F)c(F)c3)n2)CC1 (stereo not given)
400 nM	O=C(NCC1CCCCN1C(=O)c1cccc2ccccc12)c1ccccc1 (stereo not given)
630 nM	COc1ccc(CN2C(=O)C(O)(CC(=O)c3ccncc3)c3cc(Br)ccc32)cc1OC (stereo not given)
790 nM	CCOC(=O)c1cn[nH]c1S(=O)(=O)N1CCC1c1ccccc1 (stereo not given)
5 nM	O=c1[nH]cnc2c([C@@H]3O[C@H](CO)[C@@H](O)[C@H]3O)[nH]nc12
500 nM	Cc1ccc(S(=O)(=O)Nc2ccc(CN3CCN(C(=O)c4cccc(C)c4)CC3)cc2)cc1
630 nM	COc1ccc(-c2csc(NC(=O)c3ccc([N+](=O)[O-])s3)n2)cc1OC

Compound	IC50
N#Cc1cccc(CN2CCC(N(Cc3cccnc3)C(=O)c3cc(F)c(F)cc3F)CC2)c1	> 40000 nM (inactive)
